{"source": "patent US10952992B2", "about": "“Methods of treating intraocular pressure with activators of Tie-2” (Aerpio Pharmaceuticals, Inc., priority 2015, dated 2021)", "key": {"[1]": {"assay": "Example 3 general health observations", "type": "in vivo, New Zealand White rabbits", "conditions": "Example 3, 7 days topical or subcutaneous dosing", "method": "Animals were observed within their cages once daily throughout the study period. […] General health observations were recorded daily beginning on Day 1 and continuing throughout the course of the study."}, "[2]": {"tested_on": "intraocular pressure in normotensive New Zealand White rabbits", "assay": "Example 3 intraocular pressure after repeated topical and subcutaneous administration (pneumotonometer)", "type": "in vivo", "method": "To measure the tolerability and effect of Compound 1 (sodium salt) on intraocular pressure following repeated topical and subcutaneous administration, normotensive New Zealand White rabbits were treated with Compound 1 (sodium salt). Animals were acclimated 1 to 2 times per day to the intraocular pressure (IOP) measurement procedures prior to initiation of the study to determine baseline IOP levels. IOP acclimation was performed in the two weeks prior to study start for a total of 5 days. Animals with unacceptable IOP values were excluded from the study. Prior to taking all IOP measurements, 1 to 2 drops of a 0.5% proparacaine solution were applied to the eye as a topical anesthetic. OP measurements were performed with a pneumotonometer. Test and control formulations were administered to the animals once or twice daily topically into both eyes or subcutaneously starting on Day 1 according to TABLE 20 and TABLE 21 below. PM dosing, where applicable, was performed ˜8 hours after AM dosing. IOP measurements were performed twice (AM and PM) at baseline (prior to the start of dosing), twice (AM and PM) on Days 1 and 7, and once daily (AM) on Days 2-6 and Day 8. Prior to taking all IOP measurements, 1 to 2 drops of a 0.5% proparacaine solution were applied to the eye as a topical anesthetic. IOP measurements were performed with a pneumotonometer. AM IOP measurements were performed 2 hours after AM dosing; the only exceptions were Day 8 AM measurements, which were performed 24 hours after the final dose. PM IOP measurements were performed ˜5 hours (baseline and Day 1) or ˜4 hours (Day 7) after AM IOP measurements, prior to PM dosing, with at least 15 minutes elapsing between anesthetic application for PM IOP measurements and PM dosing. The final round of slit-lamp examinations was performed on Day 8."}}, "note": "Where a name gives a salt, the structure may show the parent alone.", "data": [{"smiles": "COC(=O)N[C@@H](Cc1ccccc1)C(=O)N[C@@H](Cc1ccc(NS(=O)(=O)O)cc1)c1csc(-c2cccs2)n1", "note": "[Compound 1 sodium salt]", "values": [{"measurement": "adverse effects on general health", "setting": "[1]", "result": "No adverse effects"}, {"measurement": "reduction in IOP values compared to vehicle control", "setting": "[2]; 10 mg/kg subcutaneous", "result": "slightly more consistent"}, {"measurement": "lower IOP values compared to Group 1 (Vehicle)", "setting": "[2]; Group 2: 0.45 mg/eye topical BID, over the course of dosing", "result": "not"}, {"measurement": "IOP values compared to Group 1 (Vehicle)", "setting": "[2]; Group 3: 1.2 mg/eye topical BID, over the course of dosing", "result": "lower IOP values"}, {"measurement": "IOP values compared to Group 1 (Vehicle)", "setting": "[2]; Group 4: 1.2 mg/eye topical QD, over the course of dosing", "result": "lower IOP values"}, {"measurement": "IOP values compared to Group 1 (Vehicle)", "setting": "[2]; Group 5: 10 mg/kg subcutaneous BID, early part of the study, difference decreased towards the end", "result": "Lower IOP values"}, {"measurement": "apparent reduction in intraocular pressure values", "setting": "[2]; Groups 3 and 4 (1.2 mg/eye topical BID, QD), Day 7 and Day 8 (24 hours after the end of dosing)", "result": "persisted"}, {"measurement": "effect on intraocular pressure", "setting": "[2]; topical 1.2 mg/eye, QD or BID", "result": "reduce intraocular pressure"}]}]}
